Assay results: PubChem BioAssay AID1996
Values after ≈ are worked out from the molar mass of the structure shown.

Details: buffer; pH 7.4; 200.0 µM

| SMILES | solubility kinetic [µg/mL] |
| --- | --- |
| CCN(Cc1nc2ccccc2n1C)c1ccccc1 | 30.7 (≈ 116 µM) |
| CC1=CC(C)(C)NC(=S)N1NC(=O)c1ccccc1Cl | > 46.5 |
| CN(C)c1cccc(C(=O)OCC(=O)NC(=O)NCc2ccccc2)c1 | 2.6 (≈ 7.32 µM) |
| Cc1ccc(NC(=O)c2cc(=O)[nH]c3ccccc23)cc1 | 1.6 (≈ 5.75 µM) |
| COc1cccc(NC(=O)CNC(=O)c2ccc([N+](=O)[O-])cc2)c1 | 2.9 (≈ 8.81 µM) |
| CC(C)(CNc1ccc([N+](=O)[O-])cc1C#N)N1CCOCC1 | 8.1 (≈ 26.6 µM) |
| C=CCNc1nc(N)c([N+](=O)[O-])c(NCc2ccccc2)n1 | 0.7 (≈ 2.33 µM) |
| CCCn1c(C(O)c2cc(OC)c(OC)c(OC)c2)nc2ccccc21 (stereo not given) | 49.3 (≈ 138 µM) |
| COc1cccc(C2NC(=O)CCC2[N+](=O)[O-])c1OC (stereo not given) | 39.4 (≈ 141 µM) |
| Cc1noc(C)c1C(=O)OCC(=O)Nc1ccc(N2CCOCC2)cc1 | 7.6 (≈ 21.1 µM) |
| COc1ccc(NC(=O)c2ccc3c(c2)OCO3)cc1 | 3.8 (≈ 14 µM) |
| COc1ccc(OCC(=O)Nc2ccc3c(c2)CCC3)cc1 | 19.3 (≈ 64.9 µM) |
| Cc1ccc(S(=O)(=O)n2ccc3c2CCCC3=O)cc1 | > 43.4 |
| COc1cccc2cc(-c3nc4ccccc4[nH]3)c(=O)oc12 | < 0.3 |
| CCOc1ccc2nc(SCC3CC3(Cl)Cl)[nH]c2c1 (stereo not given) | 29.4 (≈ 92.7 µM) |
| COc1ccc(CCC(=O)Nc2cnc3ccccc3c2)cc1 | 1 (≈ 3.26 µM) |
| O=C(NC(=O)c1ccccc1)Nc1ccc(Cl)cn1 | < 0.2 |
| Cc1ccc(CNc2c(C=O)c(=O)[nH]c3ccccc23)cc1 | 2.2 (≈ 7.53 µM) |
| S=C(NCCc1ccccc1)Nc1ccccc1N1CCOCC1 | > 51.2 |
| CN(C)C(=S)Nc1ccc(N2CCOCC2)cc1 | > 39.8 |

| SMILES | solubility kinetic [µg/mL] |
| --- | --- |
| Cc1cccn2c(=O)nc(SCC(=O)NCc3ccco3)nc12 | > 49.6 |
| Cn1cccc1C(=O)OCC(=O)c1ccc(Br)s1 | 7.9 (≈ 24.1 µM) |
| c1ccc(-c2nc(NC3CCCC3)c3ccccc3n2)cc1 | 3.1 (≈ 10.7 µM) |
| COc1cc(NC(=O)c2cc(C)no2)c(OC)cc1Cl | 1.8 (≈ 6.07 µM) |
| COc1ccccc1COC(=O)CN1C(=O)NC2(CCCCC2C)C1=O (stereo not given) | > 54.1 |
| CCC(CC)c1nc2ccccc2c(=O)[nH]1 | > 32.4 |
| Cc1ccc(CSCC(=O)NCc2ccco2)cc1 | 36.8 (≈ 134 µM) |
| COc1ccc(NC(=O)c2cccnc2N2CCOCC2)cc1 | > 47 |
| CC1CN(C(=O)CS(=O)(=O)Cc2ccc(Cl)cc2)CC(C)O1 (stereo not given) | 46.8 (≈ 135 µM) |
| C=CCOc1c(Br)cc(/C=C2/C(=O)ON=C2C)cc1OC | 44.3 (≈ 126 µM) |
| CCCN(CC(=O)Nc1ccccc1OC)C(=O)CC1CCCC1 | > 49.9 |
| Cc1cc(C)c2[nH]c(C(=O)Nc3ccc(F)cc3Br)cc2c1 | 4.2 (≈ 11.6 µM) |
| O=C(Nc1ccccc1)Nc1ccc2ncoc2c1 | 27.5 (≈ 109 µM) |
| CCOC(=O)/C=C(C)\C=C\c1c[nH]c2ccccc12 | 12.5 (≈ 49 µM) |
| COc1cc2cc(C(=O)N(C)Cc3ccccc3)[nH]c2cc1OC | 0.7 (≈ 2.16 µM) |
| CSC1=NC2(C[C@H]2c2ccccc2)C(=O)N1C (stereo not given in full) | > 36.9 |
| COc1cccc(N2CCN(Cc3ccco3)CC2)c1 | 30.8 (≈ 113 µM) |
| O=C(O/N=C1/CCCc2occc21)c1ccc(F)cc1 | 0.9 (≈ 3.29 µM) |
| Cc1ccc2cccc(OCC(=O)NCCC3=CCCCC3)c2n1 | 46.5 (≈ 143 µM) |
| Cc1ccc(/C=N/n2c(C)nc3ccccc3c2=O)o1 | > 40.1 |

| SMILES | solubility kinetic [µg/mL] |
| --- | --- |
| CCCCOc1ccc(C(=O)N=c2sccn2C)cc1OC | 35.7 (≈ 111 µM) |
| COc1ccc([N+](=O)[O-])cc1NC(=O)CCN1CCOCC1 | > 46.4 |
| Cc1ccc(OCCn2cc(/C=C/C(=O)O)c3ccccc32)cc1 | > 48.2 |
| Cc1ccc(SCC(=O)NCCc2ccc(F)cc2)cc1 | 13.6 (≈ 44.8 µM) |
| Cc1ccc(CCC(=O)Nc2ccc(Cl)cc2)o1 | 23.9 (≈ 90.6 µM) |
| Fc1cccc(CNc2ncnc3cc(Cl)ccc23)c1F | 3.8 (≈ 12.4 µM) |
| O=C(NCCN1CCOCC1)C1CC(=O)N(c2ccc(Cl)cc2)C1 (stereo not given) | > 52.8 |
| O=C(CCSCc1ccccc1F)NCc1cccnc1 | > 45.7 |
| O=C(NCCCn1ccnc1)C(=O)Nc1ccccc1 | 39.5 (≈ 145 µM) |
| CC(C)(C)c1ccc(NC(=O)CON=C(N)c2ccccc2)cc1 | 3.8 (≈ 11.7 µM) |
| N#Cc1cccc(NC(=O)CSc2n[nH]c(=O)[nH]c2=O)c1 | > 45.5 |
| CC1C(=O)N2CCCc3cc(NS(=O)(=O)c4ccccc4)cc1c32 (stereo not given) | > 51.4 |
| CC(=O)C1=C(C)NC(SCC(N)=O)=C(C#N)C1c1ccco1 (stereo not given) | > 47.6 |
| Cc1ccccc1NC(=O)NC1CCCCCCC1 | 1.5 (≈ 5.76 µM) |
| CC(=O)N1C(=O)NC(c2ccccc2)=C([N+](=O)[O-])C1c1ccccc1 (stereo not given) | 43.2 (≈ 128 µM) |
| COC(=O)Cc1c(O)ccn(CCc2ccc(OC)c(OC)c2)c1=O | > 52.1 |
| CCSc1nc(C)nc2sc(C)c(C)c12 | < 0.3 |
| N#CCN1C(=O)C(=O)N(Cc2cccc(Cl)c2)C1=O | > 41.7 |
| Cl.FC(F)Sc1ccc(NC2=NCCCCC2)cc1 | 45 |
| Cc1ccc2c(CN3CCCCC3)cc(=O)oc2c1C | 22.6 (≈ 83.3 µM) |
